Reference: patent publication US7238693B2, “Aryl carbamate derivatives, preparation and use thereof” (Cerep, priority 2001, dated 2007)
Where two headings read alike, the source gives them in different places.

Key:
Assay type in all cases: binding
[1] = target: T1, human isoform h5-HT4e (Homo sapiens, UniProt Q13639); assay: displacement of radioligand [3H]-GR113808 in rat glial cells expressing h5-HT4e
T1 construct: expressed in transfected cells; membrane preparation
Procedure: The compounds of the invention were evaluated by measuring their affinity constant Ki determined by displacing a radioligand [^3H]-GR113808 in rat glial cells stably expressing the human isoform h5-HT4e.
Confluent glial cells were washed twice in PBS and centrifuged at 300 g for 5 min. The pellet was used immediately and the cells were suspended in 10 volumes of HEPES (50 mM, pH 7.4, 4° C.) then homogenized with a teflon homogenizer and centrifuged at 40,000 g for 20 min. The pellet was resuspended in 15 volumes of HEPES. Displacement experiments were carried out in 500 μl of buffer (50 mM HEPES) containing 20 μl of radioligand [^3H]-GR113808 at a concentration of 0.2 nM for isoform h5-HT4e or at a concentration equal to half of the Kd of the radioligand for the other isoforms expressed in COS cells, 20 μl of competitor ligand at seven different concentrations and 50 μl of membrane preparation (100–200 μg of protein determined by the Bradford method). Binding was carried out at 25° C. for 30 min and the reaction was stopped by rapid vacuum filtration (Brandel Harvester) on Whatman GF/B filters preincubated in 0.1% PEI solution to minimize nonspecific binding.
Membrane-bound radioactivity is retained on the filter, which was cut and washed with cold buffer (50 mM Tris-HCl, pH 7.4) and incubated overnight in 4 ml of scintillation liquid. Radioactivity was measured in a liquid scintillation counter (Beckman LS 6500C). Binding data were obtained by computer assisted linear regression (Graph Prism Program, Graph Pad Software. Inc., San Diego, Calif.)

[2] = target: 5-HT6 receptor (Homo sapiens, UniProt P50406); assay: selectivity, 5-HT6 receptor; conditions: up to a concentration of 1 μM
[3] = target: 5-HT7 receptor (Homo sapiens, UniProt P34969); assay: selectivity, 5-HT7 receptor; conditions: up to a concentration of 1 μM
[4] = target: 5-HT5A receptor (Homo sapiens, UniProt P47898); assay: selectivity, 5-HT5A receptor; conditions: up to a concentration of 1 μM
[5] = target: T2, 5-HT3 receptor (Homo sapiens, UniProt P46098); assay: selectivity, 5-HT3 receptor; conditions: up to a concentration of 1 μM
T2 sequence (P46098 24-478): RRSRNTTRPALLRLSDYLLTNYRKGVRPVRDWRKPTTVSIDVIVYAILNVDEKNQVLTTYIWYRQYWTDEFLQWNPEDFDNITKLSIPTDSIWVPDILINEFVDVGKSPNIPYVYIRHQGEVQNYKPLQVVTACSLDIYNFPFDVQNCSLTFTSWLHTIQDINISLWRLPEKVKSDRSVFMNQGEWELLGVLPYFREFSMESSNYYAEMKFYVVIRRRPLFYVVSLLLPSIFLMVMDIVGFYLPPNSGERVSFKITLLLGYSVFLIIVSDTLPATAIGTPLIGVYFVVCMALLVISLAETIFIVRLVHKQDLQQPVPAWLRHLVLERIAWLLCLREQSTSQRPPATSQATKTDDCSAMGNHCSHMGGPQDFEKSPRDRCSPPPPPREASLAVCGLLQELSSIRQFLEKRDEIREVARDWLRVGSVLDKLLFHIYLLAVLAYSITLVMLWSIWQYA

[6] = target: T3, 5-HT1A receptor (Homo sapiens, UniProt P08908); assay: selectivity, 5-HT1A receptor; conditions: up to a concentration of 1 μM
T3 sequence (P08908 1-422): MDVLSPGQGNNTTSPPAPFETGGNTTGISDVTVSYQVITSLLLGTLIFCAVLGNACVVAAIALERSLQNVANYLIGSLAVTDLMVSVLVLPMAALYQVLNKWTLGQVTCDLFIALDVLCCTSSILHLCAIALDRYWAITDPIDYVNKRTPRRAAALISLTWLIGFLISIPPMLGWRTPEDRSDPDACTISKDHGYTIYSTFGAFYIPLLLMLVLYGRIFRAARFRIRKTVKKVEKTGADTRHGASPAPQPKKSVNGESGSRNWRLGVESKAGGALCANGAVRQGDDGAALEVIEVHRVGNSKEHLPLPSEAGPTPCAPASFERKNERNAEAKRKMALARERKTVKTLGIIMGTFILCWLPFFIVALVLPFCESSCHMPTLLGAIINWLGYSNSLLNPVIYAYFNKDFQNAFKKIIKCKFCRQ

[7] = target: T4, 5-HT2C receptor (Homo sapiens, UniProt P28335); assay: selectivity, 5-HT2C receptor; conditions: up to a concentration of 1 μM
T4 sequence (P28335 33-458): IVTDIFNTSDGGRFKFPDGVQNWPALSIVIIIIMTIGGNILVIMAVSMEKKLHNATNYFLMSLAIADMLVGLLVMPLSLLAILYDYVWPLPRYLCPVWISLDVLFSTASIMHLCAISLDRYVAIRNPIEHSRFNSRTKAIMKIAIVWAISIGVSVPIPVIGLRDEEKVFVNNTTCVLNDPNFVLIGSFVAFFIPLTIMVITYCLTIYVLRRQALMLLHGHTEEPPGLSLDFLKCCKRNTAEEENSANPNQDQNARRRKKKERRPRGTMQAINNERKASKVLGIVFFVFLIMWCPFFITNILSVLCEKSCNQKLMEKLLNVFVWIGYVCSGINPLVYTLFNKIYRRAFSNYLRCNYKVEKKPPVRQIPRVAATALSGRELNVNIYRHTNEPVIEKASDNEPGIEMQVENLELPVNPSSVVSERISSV

[8] = target: 5-HT1B receptor (Homo sapiens, UniProt P28222); assay: selectivity, 5-HT1B receptor; conditions: up to a concentration of 1 μM
[9] = target: 5-HT2A receptor (Homo sapiens, UniProt P28223); assay: selectivity, 5-HT2A receptor; conditions: up to a concentration of 1 μM
[10] = [3H]-GR113808 0.2 nM, membranes of rat glial cells expressing h5-HT4e, 25° C., 30 min, read-out: Ki

T1 sequence (Q13639 1-378 isoform Q13639-5): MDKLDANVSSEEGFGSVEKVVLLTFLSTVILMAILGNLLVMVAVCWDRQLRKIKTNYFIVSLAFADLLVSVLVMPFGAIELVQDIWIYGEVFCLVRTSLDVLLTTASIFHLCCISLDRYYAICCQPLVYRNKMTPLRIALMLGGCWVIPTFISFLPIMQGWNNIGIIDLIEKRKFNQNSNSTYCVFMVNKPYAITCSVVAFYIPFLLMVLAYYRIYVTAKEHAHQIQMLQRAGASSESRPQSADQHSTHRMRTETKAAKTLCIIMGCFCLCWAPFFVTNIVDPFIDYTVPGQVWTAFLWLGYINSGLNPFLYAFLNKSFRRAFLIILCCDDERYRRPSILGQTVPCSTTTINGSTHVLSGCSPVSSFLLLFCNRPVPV
Sequence of 5-HT7 receptor (P34969 whole entry): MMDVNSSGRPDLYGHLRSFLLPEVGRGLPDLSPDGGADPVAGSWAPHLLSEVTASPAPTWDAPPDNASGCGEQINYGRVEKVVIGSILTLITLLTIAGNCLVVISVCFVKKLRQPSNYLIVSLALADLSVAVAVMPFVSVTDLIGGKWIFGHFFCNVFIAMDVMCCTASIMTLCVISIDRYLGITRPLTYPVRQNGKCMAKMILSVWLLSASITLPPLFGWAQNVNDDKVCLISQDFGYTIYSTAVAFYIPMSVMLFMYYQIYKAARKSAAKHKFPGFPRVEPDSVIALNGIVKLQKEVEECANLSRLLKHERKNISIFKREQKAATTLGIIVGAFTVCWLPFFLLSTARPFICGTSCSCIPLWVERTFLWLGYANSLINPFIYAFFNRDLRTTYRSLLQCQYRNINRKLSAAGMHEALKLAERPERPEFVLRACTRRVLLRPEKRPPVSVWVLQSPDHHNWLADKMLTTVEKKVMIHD
Sequence of 5-HT2A receptor (P28223 whole entry): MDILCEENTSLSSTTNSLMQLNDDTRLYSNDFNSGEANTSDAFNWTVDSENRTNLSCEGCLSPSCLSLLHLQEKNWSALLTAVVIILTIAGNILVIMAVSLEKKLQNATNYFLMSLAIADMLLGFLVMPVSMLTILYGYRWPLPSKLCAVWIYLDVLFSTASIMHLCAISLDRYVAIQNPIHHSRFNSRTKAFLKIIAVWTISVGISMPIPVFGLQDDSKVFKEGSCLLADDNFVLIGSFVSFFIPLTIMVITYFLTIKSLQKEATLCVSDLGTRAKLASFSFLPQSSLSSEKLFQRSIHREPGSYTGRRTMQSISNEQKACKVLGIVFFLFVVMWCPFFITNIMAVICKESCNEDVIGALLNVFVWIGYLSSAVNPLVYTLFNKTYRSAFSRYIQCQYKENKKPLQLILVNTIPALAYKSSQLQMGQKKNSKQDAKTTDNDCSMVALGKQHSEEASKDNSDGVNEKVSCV
Sequence of 5-HT1B receptor (P28222 whole entry): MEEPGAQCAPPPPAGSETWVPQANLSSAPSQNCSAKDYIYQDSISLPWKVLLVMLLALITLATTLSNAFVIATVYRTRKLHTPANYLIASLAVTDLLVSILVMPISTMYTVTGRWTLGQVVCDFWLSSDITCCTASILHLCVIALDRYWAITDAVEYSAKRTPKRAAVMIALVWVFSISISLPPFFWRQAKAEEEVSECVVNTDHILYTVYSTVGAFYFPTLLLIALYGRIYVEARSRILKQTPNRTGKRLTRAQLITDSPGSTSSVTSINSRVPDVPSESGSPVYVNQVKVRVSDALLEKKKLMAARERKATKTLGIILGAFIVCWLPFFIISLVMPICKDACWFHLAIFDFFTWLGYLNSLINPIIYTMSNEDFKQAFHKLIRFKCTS
Sequence of 5-HT6 receptor (P50406 whole entry): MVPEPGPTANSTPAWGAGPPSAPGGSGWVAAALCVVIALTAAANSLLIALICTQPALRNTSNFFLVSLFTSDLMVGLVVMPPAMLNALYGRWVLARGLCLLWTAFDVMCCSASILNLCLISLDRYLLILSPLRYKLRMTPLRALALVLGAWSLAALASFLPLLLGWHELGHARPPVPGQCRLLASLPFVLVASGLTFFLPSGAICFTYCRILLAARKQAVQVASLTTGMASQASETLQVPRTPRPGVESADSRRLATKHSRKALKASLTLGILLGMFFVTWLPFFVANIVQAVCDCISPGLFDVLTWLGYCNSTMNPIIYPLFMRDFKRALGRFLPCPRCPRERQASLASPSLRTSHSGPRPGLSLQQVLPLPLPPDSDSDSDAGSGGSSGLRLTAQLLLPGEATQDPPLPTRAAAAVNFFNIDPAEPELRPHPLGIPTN
Sequence of 5-HT5A receptor (P47898 whole entry): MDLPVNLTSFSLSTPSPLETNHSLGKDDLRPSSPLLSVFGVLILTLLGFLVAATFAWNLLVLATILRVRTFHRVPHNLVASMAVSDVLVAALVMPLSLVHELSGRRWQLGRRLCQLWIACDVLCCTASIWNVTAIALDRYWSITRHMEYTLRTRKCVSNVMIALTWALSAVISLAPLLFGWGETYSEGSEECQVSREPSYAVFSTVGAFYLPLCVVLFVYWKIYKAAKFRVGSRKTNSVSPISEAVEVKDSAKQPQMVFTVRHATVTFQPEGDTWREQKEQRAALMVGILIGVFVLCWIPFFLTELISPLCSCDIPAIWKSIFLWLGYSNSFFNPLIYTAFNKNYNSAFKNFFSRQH

| Compound | Ki [1, 10] | further results |
| --- | --- | --- |
| CCOc1ccccc1NC(=O)OCCN1CCN(c2cccc(C)c2)CC1 [Compound 21, 2-[4-(3-methylphenyl)piperazino]ethyl-N-(2-ethoxyphenyl)carbamate] | 20.2 nM |  |
| CCOc1ccccc1NC(=O)OCCN1CCN(c2ccccn2)CC1 [Compound 24, 2-[4-(2-pyridinyl)piperazino]ethyl-N-(2-ethoxyphenyl)carbamate] | 4.5 nM |  |
| CCOc1ccccc1NC(=O)OCCCN1CCN(c2ccccn2)CC1 [Compound 40, 3-[4-(2-pyridinyl)piperazino]propyl-N-(2-ethoxyphenyl)carbamate] | 9.9 nM |  |
| CCOc1ccccc1NC(=O)OCCCN1CCN(c2cccnn2)CC1 [Compound 42, 3-[4-(3-pyridazinyl)piperazino]propyl-N-(2-ethoxyphenyl)carbamate] | 3.6 nM |  |
| CCOc1ccccc1NC(=O)OCCCN1CCN(c2ccncn2)CC1 [Compound 43, 3-[4-(4-pyrimidinyl)piperazino]propyl-N-(2-ethoxyphenyl)carbamate] | 10.4 nM |  |
| CCOc1ccccc1NC(=O)OCCCN1CCN(c2ncccn2)CC1 [Compound 44, 3-[4-(2-pyrimidinyl)piperazino]propyl-N-(2-ethoxyphenyl)carbamate] | 11.8 nM |  |
| CCOc1ccccc1NC(=O)OCCCN1CCN(c2ccc(C)nn2)CC1 [Compound 48, 3-[4-(6-methyl-3-pyridazinyl)piperazino]propyl-N-(2-ethoxyphenyl)carbamate] | 3.9 nM |  |
| COc1cccc(N2CCN(CCOC(=O)Nc3ccccc3OC)CC2)c1 [Compound 51, 2-[4-(3-methoxyphenyl)piperazino]ethyl-N-(2-methoxyphenyl)carbamate] | 12.7 nM |  |
| COc1ccccc1NC(=O)OCCN1CCN(c2ccccn2)CC1 [Compound 62, 2-[4-(2-pyridinyl)piperazino]ethyl-N-(2-methoxyphenyl)carbamate] | 9.3 nM |  |
| COc1ccccc1NC(=O)OCCN1CCN(c2ccncc2)CC1 [Compound 63, 2-[4-(4-pyridinyl)piperazino]ethyl-N-(2-methoxyphenyl)carbamate] |  | activity for the 5-HT6 receptor [2]: no activity; activity for the 5-HT7 receptor [3]: no activity; activity for the 5-HT5A receptor [4]: no activity; activity for the 5-HT3 receptor [5]: no activity; activity for the 5-HT1A receptor [6]: no activity; Ki ([1]; as stated in the description, read-out: Ki for the 5-HT4 receptor): 5 nM; activity for the 5-HT2C receptor [7]: no activity; activity for the 5-HT1B receptor [8]: no activity; activity for the 5-HT2A receptor [9]: no activity |
| COc1ccccc1NC(=O)OCCN1CCN(c2cccnn2)CC1 [Compound 64, 2-[4-(3-pyridazinyl)piperazino]ethyl-N-(2-methoxyphenyl)carbamate] | 10.6 nM |  |
| COc1ccccc1NC(=O)OCCN1CCN(c2ncccn2)CC1 [Compound 65, 2-[4-(2-pyrimidinyl)piperazino]ethyl-N-(2-methoxyphenyl)carbamate] | 10.4 nM |  |
| COc1ccccc1NC(=O)OCCCN1CCN(c2ccncc2)CC1 [Compound 83, 3-[4-(4-pyridinyl)piperazino]propyl-N-(2-methoxyphenyl)carbamate] | 10 nM |  |
